From PubChem BioAssay AID256 (DTP/NCI, 2004) come the findings set out here.

The subject of this test is CD2F1 mice, L1210 leukemia ip, survival T/C. The test is described as follows: NCI In Vivo Anticancer Drug Screen. Data for tumor model L1210 Leukemia (intraperitoneal) in CD2F1 (CDF1) mice. Conditions: endpoint: mean survival time, higher = longer survival. Put shortly: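 Ratio T/C, where T is the treated-group value and C the vehicle-dosed control value, from mice implanted with a transplantable tumor.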

The mark [1] stands for this setting: dose: 75.0 mg/kg/injection, schedule: Q01DX001 (ip), vehicle: saline.
Where [2] appears, read: dose: 150.0 mg/kg/injection, schedule: Q01DX001 (ip), vehicle: saline.
[3] abbreviates: dose: 300.0 mg/kg/injection, schedule: Q01DX001 (ip), vehicle: saline.
Setting [4] is: dose: 100.0 mg/kg/injection, schedule: Q01DX009 (ip), vehicle: saline with Tween-80.
[5] abbreviates: dose: 100.0 mg/kg/injection, schedule: Q04DX003 (ip), vehicle: saline with Tween-80.
Setting [6] is: dose: 200.0 mg/kg/injection, schedule: Q01DX009 (ip), vehicle: saline with Tween-80.
[7] abbreviates: dose: 200.0 mg/kg/injection, schedule: Q04DX003 (ip), vehicle: saline with Tween-80.
Where [8] appears, read: dose: 400.0 mg/kg/injection, schedule: Q01DX009 (ip), vehicle: saline with Tween-80.
[9] abbreviates: dose: 400.0 mg/kg/injection, schedule: Q04DX003 (ip), vehicle: saline with Tween-80.
[10] abbreviates: dose: 100.0 mg/kg/injection, schedule: Q04DX003 (ip), vehicle: saline.
Setting [11] is: dose: 200.0 mg/kg/injection, schedule: Q04DX003 (ip), vehicle: saline.

Structures are written as SMILES. Where “and” joins values, the source holds several entries; their conditions need not be identical. Equal entries are not always repeated. Inconclusive results and toxic doses are left out.

For the molecule `O=C(Nc1ccc(C2=NCCN2)cc1)c1ccc(C(=O)Nc2ccc(C3=NCCN3)cc2)c([N+](=O)[O-])c1`, the T/C by setting is: (dose: 5.0 mg/kg/injection, schedule: Q01DX007 (ip), vehicle: saline) 124 % of control; (dose: 5.0 mg/kg/injection, schedule: Q03DX003 (ip), vehicle: saline) 107 % of control; (dose: 5.0 mg/kg/injection, schedule: Q04DX003 (ip), vehicle: saline) 112 % of control; (dose: 8.0 mg/kg/injection, schedule: Q01DX009 (ip), vehicle: saline) 158 % of control; (dose: 10.0 mg/kg/injection, schedule: Q01DX007 (ip), vehicle: saline) 155 % of control; (dose: 10.0 mg/kg/injection, schedule: Q01DX009 (ip), vehicle: saline) 163 % of control. Also, the T/C is, setting by setting: (dose: 10.0 mg/kg/injection, schedule: Q03DX003 (ip), vehicle: saline) 113 % of control; (dose: 10.0 mg/kg/injection, schedule: Q04DX003 (ip), vehicle: saline) 112 % of control; (dose: 16.0 mg/kg/injection, schedule: Q01DX009 (ip), vehicle: saline) 271 % of control; (dose: 20.0 mg/kg/injection, schedule: Q01DX007 (ip), vehicle: saline) 181 % of control; (dose: 20.0 mg/kg/injection, schedule: Q01DX009 (ip), vehicle: saline) 225 % of control; (dose: 20.0 mg/kg/injection, schedule: Q04DX003 (ip), vehicle: saline) 115 % of control.
As to `c1ccc(CN=NNc2ccccc2)cc1`, the T/C is 94 % of control under setting [1], 100 % of control under setting [2] and 103 % of control under setting [3].
As for `CN(C)CCSc1cc(O)c2c(c1O)C(=O)c1ccccc1C2=O`, the T/C reads like this: (dose: 25.0 mg/kg/injection, schedule: Q01DX009 (ip), vehicle: water) 95 % of control; (dose: 50.0 mg/kg/injection, schedule: Q01DX009 (ip), vehicle: water) 98 % of control; (dose: 100.0 mg/kg/injection, schedule: Q01DX009 (ip), vehicle: water) 92 % of control; (dose: 200.0 mg/kg/injection, schedule: Q01DX009 (ip), vehicle: water) 95 % of control.
Take `COc1ccc([Si](F)(c2ccc(OC)cc2)c2ccc(OC)cc2)cc1`: the T/C runs as follows: under setting [4], 100 % of control; under setting [5], 95 % of control; under setting [6], 94 % of control; under setting [7], 93 % of control; under setting [8], 93 % of control; under setting [9], 90 % of control.
As for `CCOC(=O)c1c[nH]c([O-])c1[N+]#N`, the T/C by setting is: (dose: 100.0 mg/kg/injection, schedule: Q01DX001 (ip), vehicle: saline with Tween-80) 94 % of control; (dose: 100.0 mg/kg/injection, schedule: Q04DX002 (ip), vehicle: saline with Tween-80) 100 % of control; (dose: 200.0 mg/kg/injection, schedule: Q01DX001 (ip), vehicle: saline with Tween-80) 96 % of control; (dose: 200.0 mg/kg/injection, schedule: Q04DX002 (ip), vehicle: saline with Tween-80) 107 % of control; (dose: 400.0 mg/kg/injection, schedule: Q01DX001 (ip), vehicle: saline with Tween-80) 91 % of control; (dose: 400.0 mg/kg/injection, schedule: Q04DX002 (ip), vehicle: saline with Tween-80) 103 % of control.
For the molecule `c1ccc(C2NNC(c3ccccc3)NN2)cc1` (stereo unspecified), the T/C is 100 % of control (dose: 100.0 mg/kg/injection, schedule: Q01DX001 (ip), vehicle: other); 97 % of control (dose: 200.0 mg/kg/injection, schedule: Q01DX001 (ip), vehicle: other); 92 % of control (dose: 400.0 mg/kg/injection, schedule: Q01DX001 (ip), vehicle: other).
For the molecule `O[O][Sn][c]1ccccc1`, the T/C is, setting by setting: (dose: 50.0 mg/kg/injection, schedule: Q01DX009 (ip), vehicle: saline with Tween-80) 93 % of control; under setting [4], 89 % of control; under setting [5], 100 % of control; under setting [6], 91 % of control; under setting [7], 97 % of control.
Take `CC(=O)N1CCc2cc(N)ccc21`: the T/C reads like this: under setting [5], 93 % of control; under setting [7], 95 % of control; under setting [9], 97 % of control.
In the case of `CCN(C(=O)Nc1cc([N+](=O)[O-])ccc1C)c1cc(C)ccc1OC`, the T/C by setting is: under setting [4], 88 % of control; under setting [6], 94 % of control; under setting [8], 94 % of control.
On to `O=C([O][Hg][C](F)(F)F)C(F)(F)F`, for which the T/C (dose: 6.25 mg/kg/injection, schedule: Q04DX003 (ip), vehicle: saline) was 98 % of control.
Consider `CC[CH2][Sn]([CH2]CC)([CH2]CCC#N)[O]C(C)=O`, for which the T/C is 97 % of control (dose: 0.09 mg/kg/injection, schedule: Q01DX009 (ip), vehicle: saline); 101 % of control (dose: 0.19 mg/kg/injection, schedule: Q01DX009 (ip), vehicle: saline); 100 % of control and 105 % of control (dose: 0.39 mg/kg/injection, schedule: Q01DX009 (ip), vehicle: saline); 103 % of control (dose: 1.56 mg/kg/injection, schedule: Q01DX009 (ip), vehicle: saline).
Consider `CN(C)CCCN=Cc1cc(Cl)ccc1O.CN(C)CCCN=Cc1cc(Cl)ccc1O.[Ni+2]`, for which the T/C is 93 % of control (dose: 6.25 mg/kg/injection, schedule: Q01DX009 (ip), vehicle: saline with Tween-80); 93 % of control (dose: 12.5 mg/kg/injection, schedule: Q01DX009 (ip), vehicle: saline with Tween-80); 100 % of control (dose: 25.0 mg/kg/injection, schedule: Q01DX009 (ip), vehicle: saline with Tween-80).
With `CCCCCC/C=C/C(O)CC` (stereo unspecified), the T/C under setting [10] is 100 % of control; the T/C under setting [11] is 95 % of control; the T/C (dose: 400.0 mg/kg/injection, schedule: Q04DX003 (ip), vehicle: saline) was 103 % of control.
Turning to `Cc1ccc(Nc2nc(N)nc(N)c2N=O)cc1C`, the T/C is 90 % of control (dose: 50.0 mg/kg/injection, schedule: Q01DX001 (ip), vehicle: Klucel (hydroxypropylcellulose) (HPC)); 87 % of control (dose: 100.0 mg/kg/injection, schedule: Q01DX001 (ip), vehicle: Klucel (hydroxypropylcellulose) (HPC)); 98 % of control (dose: 200.0 mg/kg/injection, schedule: Q01DX001 (ip), vehicle: Klucel (hydroxypropylcellulose) (HPC)).
For the molecule `CC(C)(S)CNCCSC(=O)c1ccccc1`, the T/C runs as follows: under setting [4], 103 % of control; under setting [6], 100 % of control; under setting [8], 94 % of control.
`Cc1ccc(S(=O)(=O)OCC(C)C)cc1`: the T/C by setting is: under setting [4], 101 % of control; under setting [6], 101 % of control; under setting [8], 98 % of control.
With `O=[N+]([O-])c1cc2nsnc2cc1[N+](=O)[O-]`, the T/C under setting [5] was 101 % of control, the T/C under setting [7] was 95 % of control and the T/C under setting [9] was 96 % of control.
In the case of `CC(=O)Nc1ccc2c(Nc3ccc(NS(C)(=O)=O)cc3)c3ccccc3nc2c1`, the T/C is 192 % of control (dose: 8.0 mg/kg/injection, schedule: Q01DX009 (ip), vehicle: saline with Tween-80); 203 % of control (dose: 12.0 mg/kg/injection, schedule: Q01DX009 (ip), vehicle: saline with Tween-80); 105 % of control (dose: 18.0 mg/kg/injection, schedule: Q01DX009 (ip), vehicle: saline with Tween-80); 122 % of control under setting [10]; 101 % of control under setting [11].
In the case of `CCCc1nc(/N=N/N(C)C)c(C(N)=O)[nH]1`, the T/C runs as follows: under setting [1], 114 % of control; under setting [2], 120 % of control; under setting [3], 122 % of control.
